# From the OligoGym collection
# HELM strings list units from the 5' end as sugar, base in round brackets, then linkage (d deoxyribose, r ribose, m 2'-O-methyl, p phosphodiester). Strings are as the collection lists them; they lack the last nucleoside at the 3' end of the tested compound. [moe] = 2'-O-(2-methoxyethyl) (MOE); [sp] = phosphorothioate linkage; [m5C] = 5-methylcytosine
# Target: PRNP
# Experiment: mouse, dose not given
# Conditions: ASO
row,Substance,3 h FOB score [score 0-7]
1,RNA1{[moe](A)[sp].[moe](A)p.[moe](A)p.[moe]([m5C])p.[moe](G)[sp].d(T)[sp].d([m5C])[sp].d([m5C])[sp].d(A)[sp].d(T)[sp].d(T)[sp].d(T)[sp].d(T)[sp].d([m5C])[sp].d(T)[sp].[moe](G)p.[moe](T)p.[moe](G)[sp].[moe]([m5C])}$$$$ (last 3' nucleoside missing),0
2,RNA1{[moe](A)[sp].[moe](A)p.[moe](G)p.[moe](G)p.[moe](T)[sp].d(T)[sp].d([m5C])[sp].d(G)[sp].d([m5C])[sp].d([m5C])[sp].d(A)[sp].d(T)[sp].d(A)[sp].d(A)[sp].d(T)[sp].[moe](G)p.[moe](A)p.[moe]([m5C])[sp].[moe](T)}$$$$ (last 3' nucleoside missing),5.25
3,RNA1{[moe](A)[sp].[moe](A)p.[moe](G)p.[moe]([m5C])p.[moe]([m5C])[sp].d(T)[sp].d(T)[sp].d(T)[sp].d([m5C])[sp].d(A)[sp].d(T)[sp].d(A)[sp].d(T)[sp].d(A)[sp].d(T)[sp].[moe](G)p.[moe](T)p.[moe](T)[sp].[moe](A)}$$$$ (last 3' nucleoside missing),0
4,RNA1{[moe](A)[sp].[moe](A)p.[moe](T)p.[moe](G)p.[moe](A)[sp].d([m5C])[sp].d(T)[sp].d([m5C])[sp].d(A)[sp].d(T)[sp].d([m5C])[sp].d(A)[sp].d(T)[sp].d(T)[sp].d(T)[sp].[moe](T)p.[moe](G)p.[moe]([m5C])[sp].[moe]([m5C])}$$$$ (last 3' nucleoside missing),0
5,RNA1{[moe](A)[sp].[moe](A)p.[moe](T)p.[moe](T)p.[moe](T)[sp].d([m5C])[sp].d(T)[sp].d(T)[sp].d(T)[sp].d(T)[sp].d(T)[sp].d([m5C])[sp].d([m5C])[sp].d(A)[sp].d([m5C])[sp].[moe](T)p.[moe](T)p.[moe]([m5C])[sp].[moe](A)}$$$$ (last 3' nucleoside missing),0
6,RNA1{[moe](A)[sp].[moe](A)p.[moe](T)p.[moe]([m5C])p.[moe](A)[sp].d(T)[sp].d(A)[sp].d(T)[sp].d(T)[sp].d(T)[sp].d([m5C])[sp].d(T)[sp].d(G)[sp].d(T)[sp].d([m5C])[sp].[moe](A)p.[moe](T)p.[moe]([m5C])[sp].[moe](T)}$$$$ (last 3' nucleoside missing),5
7,RNA1{[moe](A)[sp].[moe](A)p.[moe](T)p.[moe]([m5C])p.[moe](A)[sp].d(T)[sp].d(T)[sp].d([m5C])[sp].d(T)[sp].d(G)[sp].d(G)[sp].d(T)[sp].d(T)[sp].d(T)[sp].d([m5C])[sp].[moe]([m5C])p.[moe](A)p.[moe](G)[sp].[moe](G)}$$$$ (last 3' nucleoside missing),0.5
8,RNA1{[moe](A)[sp].[moe](A)p.[moe]([m5C])p.[moe](A)p.[moe](T)[sp].d(T)[sp].d(T)[sp].d(G)[sp].d(A)[sp].d(T)[sp].d(T)[sp].d(T)[sp].d([m5C])[sp].d(A)[sp].d(A)[sp].[moe](G)p.[moe](T)p.[moe]([m5C])[sp].[moe]([m5C])}$$$$ (last 3' nucleoside missing),2.5
9,RNA1{[moe](A)[sp].[moe](A)p.[moe]([m5C])p.[moe](G)p.[moe](T)[sp].d([m5C])[sp].d([m5C])[sp].d(A)[sp].d(T)[sp].d(T)[sp].d(T)[sp].d(T)[sp].d([m5C])[sp].d(T)[sp].d(G)[sp].[moe](T)p.[moe](G)p.[moe]([m5C])[sp].[moe](T)}$$$$ (last 3' nucleoside missing),0
10,RNA1{[moe](A)[sp].[moe](G)p.[moe](A)p.[moe](G)p.[moe]([m5C])[sp].d(A)[sp].d(A)[sp].d(T)[sp].d(A)[sp].d(T)[sp].d(A)[sp].d(T)[sp].d(T)[sp].d([m5C])[sp].d(A)[sp].[moe]([m5C])p.[moe]([m5C])p.[moe](A)[sp].[moe](A)}$$$$ (last 3' nucleoside missing),0
11,RNA1{[moe](A)[sp].[moe](G)p.[moe](G)p.[moe](G)p.[moe]([m5C])[sp].d(A)[sp].d(T)[sp].d(T)[sp].d(A)[sp].d(G)[sp].d(T)[sp].d(A)[sp].d(T)[sp].d(A)[sp].d([m5C])[sp].[moe](T)p.[moe](G)p.[moe](A)[sp].[moe](G)}$$$$ (last 3' nucleoside missing),2.75
12,RNA1{[moe](A)[sp].[moe](G)p.[moe](T)p.[moe](A)p.[moe](T)[sp].d([m5C])[sp].d(A)[sp].d(T)[sp].d(G)[sp].d(T)[sp].d(G)[sp].d(G)[sp].d([m5C])[sp].d([m5C])[sp].d(T)[sp].[moe]([m5C])p.[moe]([m5C])p.[moe](T)[sp].[moe](A)}$$$$ (last 3' nucleoside missing),5.75
13,RNA1{[moe](A)[sp].[moe](G)p.[moe](T)p.[moe](T)p.[moe]([m5C])[sp].d(T)[sp].d(T)[sp].d(T)[sp].d(T)[sp].d([m5C])[sp].d(T)[sp].d(T)[sp].d(T)[sp].d(G)[sp].d([m5C])[sp].[moe](A)p.[moe]([m5C])p.[moe](A)[sp].[moe]([m5C])}$$$$ (last 3' nucleoside missing),5.25
14,RNA1{[moe](A)[sp].[moe](G)p.[moe]([m5C])p.[moe](A)p.[moe]([m5C])[sp].d(A)[sp].d(G)[sp].d(G)[sp].d([m5C])[sp].d(T)[sp].d(A)[sp].d(T)[sp].d([m5C])[sp].d(T)[sp].d(T)[sp].[moe](T)p.[moe]([m5C])p.[moe](T)[sp].[moe](A)}$$$$ (last 3' nucleoside missing),5
15,RNA1{[moe](A)[sp].[moe](G)p.[moe]([m5C])p.[moe](T)p.[moe]([m5C])[sp].d(T)[sp].d(A)[sp].d(T)[sp].d(T)[sp].d(A)[sp].d(A)[sp].d(T)[sp].d(A)[sp].d(G)[sp].d(G)[sp].[moe](T)p.[moe](T)p.[moe](A)[sp].[moe](G)}$$$$ (last 3' nucleoside missing),5.5
16,RNA1{[moe](A)[sp].[moe](G)p.[moe]([m5C])p.[moe](T)p.[moe]([m5C])[sp].d(T)[sp].d([m5C])[sp].d([m5C])[sp].d(T)[sp].d(G)[sp].d(T)[sp].d(A)[sp].d(T)[sp].d(G)[sp].d(T)[sp].[moe]([m5C])p.[moe](A)p.[moe](A)[sp].[moe](A)}$$$$ (last 3' nucleoside missing),4.75
17,RNA1{[moe](A)[sp].[moe](T)p.[moe](G)p.[moe](G)p.[moe](T)[sp].d(G)[sp].d([m5C])[sp].d(T)[sp].d(T)[sp].d(T)[sp].d([m5C])[sp].d(A)[sp].d([m5C])[sp].d(A)[sp].d(A)[sp].[moe]([m5C])p.[moe](T)p.[moe](G)[sp].[moe]([m5C])}$$$$ (last 3' nucleoside missing),1
18,RNA1{[moe](A)[sp].[moe](T)p.[moe](G)p.[moe](G)p.[moe]([m5C])[sp].d(A)[sp].d([m5C])[sp].d(T)[sp].d(T)[sp].d(T)[sp].d([m5C])[sp].d(T)[sp].d(T)[sp].d(T)[sp].d(T)[sp].[moe](T)p.[moe](A)p.[moe](T)[sp].[moe](T)}$$$$ (last 3' nucleoside missing),1
19,RNA1{[moe](A)[sp].[moe](T)p.[moe](G)p.[moe](T)p.[moe](T)[sp].d(A)[sp].d([m5C])[sp].d(A)[sp].d(G)[sp].d(T)[sp].d(T)[sp].d(A)[sp].d(T)[sp].d(G)[sp].d(T)[sp].[moe](T)p.[moe]([m5C])p.[moe](A)[sp].[moe]([m5C])}$$$$ (last 3' nucleoside missing),2.5
20,RNA1{[moe](A)[sp].[moe](T)p.[moe](G)p.[moe](T)p.[moe](T)[sp].d(T)[sp].d(T)[sp].d([m5C])[sp].d([m5C])[sp].d(A)[sp].d(G)[sp].d(T)[sp].d(G)[sp].d([m5C])[sp].d([m5C])[sp].[moe]([m5C])p.[moe](A)p.[moe](T)[sp].[moe]([m5C])}$$$$ (last 3' nucleoside missing),5.75
21,RNA1{[moe](A)[sp].[moe](T)p.[moe](G)p.[moe]([m5C])p.[moe]([m5C])[sp].d(A)[sp].d([m5C])[sp].d(A)[sp].d(T)[sp].d(A)[sp].d(T)[sp].d(A)[sp].d(G)[sp].d(G)[sp].d(G)[sp].[moe](T)p.[moe]([m5C])p.[moe]([m5C])[sp].[moe](T)}$$$$ (last 3' nucleoside missing),3
22,RNA1{[moe](A)[sp].[moe](T)p.[moe](T)p.[moe](T)p.[moe](A)[sp].d(G)[sp].d(G)[sp].d([m5C])[sp].d(T)[sp].d([m5C])[sp].d(T)[sp].d(T)[sp].d(T)[sp].d(T)[sp].d([m5C])[sp].[moe]([m5C])p.[moe](A)p.[moe](G)[sp].[moe](G)}$$$$ (last 3' nucleoside missing),4.75
23,RNA1{[moe](A)[sp].[moe](T)p.[moe](T)p.[moe](T)p.[moe](A)[sp].d([m5C])[sp].d(T)[sp].d(T)[sp].d(T)[sp].d(T)[sp].d([m5C])[sp].d(A)[sp].d(G)[sp].d([m5C])[sp].d(T)[sp].[moe](G)p.[moe]([m5C])p.[moe]([m5C])[sp].[moe](T)}$$$$ (last 3' nucleoside missing),3
24,RNA1{[moe](A)[sp].[moe](T)p.[moe](T)p.[moe](T)p.[moe](A)[sp].d([m5C])[sp].d(T)[sp].d([m5C])[sp].d(T)[sp].d(T)[sp].d(G)[sp].d(T)[sp].d(T)[sp].d(G)[sp].d(A)[sp].[moe](A)p.[moe]([m5C])p.[moe](A)[sp].[moe](G)}$$$$ (last 3' nucleoside missing),3.75
25,RNA1{[moe](A)[sp].[moe](T)p.[moe](T)p.[moe](T)p.[moe](G)[sp].d(A)[sp].d(T)[sp].d(T)[sp].d(T)[sp].d([m5C])[sp].d(A)[sp].d(A)[sp].d(G)[sp].d(T)[sp].d([m5C])[sp].[moe]([m5C])p.[moe]([m5C])p.[moe](A)[sp].[moe](G)}$$$$ (last 3' nucleoside missing),5.75
26,RNA1{[moe](A)[sp].[moe](T)p.[moe]([m5C])p.[moe](A)p.[moe](T)[sp].d(T)[sp].d(T)[sp].d(T)[sp].d(G)[sp].d([m5C])[sp].d([m5C])[sp].d(A)[sp].d(T)[sp].d(T)[sp].d(T)[sp].[moe](A)p.[moe](T)p.[moe]([m5C])[sp].[moe](T)}$$$$ (last 3' nucleoside missing),3.25
